From PubChem BioAssay AID330 (DTP/NCI, 2004)
“And” between values parts separate entries of the source, which are not always exact repeats. Equal entries are not always repeated. Toxic doses and inconclusive results are not listed. Rule for the calls: active = survival T/C of 150% or more; inactive = T/C below 125% in these data.

Test system: P388 leukemia ip, CD2F1 mice, survival T/C
Test: NCI In Vivo Anticancer Drug Screen. Data for tumor model P388 Leukemia (intraperitoneal) in CD2F1 (CDF1) mice
Settings: endpoint: median survival time, higher = longer survival
How it was run: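 Mice carrying the transplanted tumor received test compound or vehicle. Survival was recorded in each group, and the value is the treated-group measurement divided by that of the vehicle-treated control group.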

[1] = dose: 50.0 mg/kg/injection, schedule: Q01DX009 (ip), vehicle: saline with Tween-80
[2] = dose: 100.0 mg/kg/injection, schedule: Q01DX009 (ip), vehicle: saline with Tween-80
[3] = dose: 200.0 mg/kg/injection, schedule: Q01DX009 (ip), vehicle: saline with Tween-80
[4] = dose: 100.0 mg/kg/injection, schedule: Q01DX005 (ip), vehicle: saline with Tween-80

Measured: T/C

S=C(S)n1nc(-c2ccccc2)c(N=Nc2ccc(Br)cc2)c1-c1ccccc1
inactive: dose: 100.0 mg/kg/injection, schedule: Q04DX002 (ip), vehicle: Klucel (hydroxypropylcellulose) (HPC) 107 % of control | dose: 200.0 mg/kg/injection, schedule: Q04DX002 (ip), vehicle: Klucel (hydroxypropylcellulose) (HPC) 110 % of control | dose: 400.0 mg/kg/injection, schedule: Q04DX002 (ip), vehicle: Klucel (hydroxypropylcellulose) (HPC) 113 % of control

OC(CCl)CN1CC[N+]2(CC1)CC[N+]1(CCN(CC(O)CCl)CC1)CC2 (stereo not drawn)
inactive: dose: 25.0 mg/kg/injection, schedule: Q01DX005 (ip), vehicle: water 100 % of control | dose: 25.0 mg/kg/injection, schedule: Q01DX005 (iv), vehicle: water 103 % of control | dose: 25.0 mg/kg/injection, schedule: Q01DX009 (sc), vehicle: water 97 % of control | dose: 25.0 mg/kg/injection, schedule: Q03HX008 (ip), vehicle: water 106 % of control | dose: 25.0 mg/kg/injection, schedule: Q03HX016 (ip), vehicle: water 100 % of control | dose: 25.0 mg/kg/injection, schedule: Q03HX024 (ip), vehicle: water 113 % of control | dose: 50.0 mg/kg/injection, schedule: Q01DX005 (ip), vehicle: water 101 % of control and 92 % of control | dose: 50.0 mg/kg/injection, schedule: Q01DX005 (iv), vehicle: water 102 % of control and 105 % of control | dose: 50.0 mg/kg/injection, schedule: Q01DX009 (ip), vehicle: water 98 % of control | dose: 50.0 mg/kg/injection, schedule: Q01DX009 (sc), vehicle: water 104 % of control | dose: 50.0 mg/kg/injection, schedule: Q03HX008 (ip), vehicle: water 103 % of control | dose: 50.0 mg/kg/injection, schedule: Q03HX016 (ip), vehicle: water 118 % of control | dose: 50.0 mg/kg/injection, schedule: Q03HX024 (ip), vehicle: water 121 % of control | dose: 100.0 mg/kg/injection, schedule: Q01DX005 (ip), vehicle: water 109 % of control and 98 % of control | dose: 100.0 mg/kg/injection, schedule: Q01DX005 (iv), vehicle: water 100 % of control and 101 % of control | dose: 100.0 mg/kg/injection, schedule: Q01DX009 (ip), vehicle: water 103 % of control | dose: 100.0 mg/kg/injection, schedule: Q01DX009 (oral), vehicle: water 99 % of control | dose: 100.0 mg/kg/injection, schedule: Q01DX009 (sc), vehicle: water 106 % of control | dose: 100.0 mg/kg/injection, schedule: Q03HX008 (ip), vehicle: water 114 % of control | dose: 100.0 mg/kg/injection, schedule: Q03HX024 (ip), vehicle: water 123 % of control | dose: 100.0 mg/kg/injection, schedule: Q04DX003 (ip), vehicle: water 92 % of control | dose: 200.0 mg/kg/injection, schedule: Q01DX001 (ip), vehicle: water 95 % of control | dose: 200.0 mg/kg/injection, schedule: Q01DX005 (ip), vehicle: water 102 % of control and 115 % of control | dose: 200.0 mg/kg/injection, schedule: Q01DX005 (iv), vehicle: water 109 % of control | dose: 200.0 mg/kg/injection, schedule: Q01DX009 (ip), vehicle: water 117 % of control | dose: 200.0 mg/kg/injection, schedule: Q01DX009 (oral), vehicle: water 101 % of control | dose: 200.0 mg/kg/injection, schedule: Q01DX009 (sc), vehicle: water 114 % of control | dose: 200.0 mg/kg/injection, schedule: Q04DX003 (ip), vehicle: water 99 % of control | dose: 200.0 mg/kg/injection, schedule: Q08DX002 (ip), vehicle: water 95 % of control | dose: 400.0 mg/kg/injection, schedule: Q01DX001 (ip), vehicle: water 96 % of control | dose: 400.0 mg/kg/injection, schedule: Q01DX005 (iv), vehicle: water 109 % of control | dose: 400.0 mg/kg/injection, schedule: Q01DX009 (ip), vehicle: water 111 % of control | dose: 400.0 mg/kg/injection, schedule: Q01DX009 (oral), vehicle: water 101 % of control | dose: 400.0 mg/kg/injection, schedule: Q01DX009 (sc), vehicle: water 107 % of control | dose: 400.0 mg/kg/injection, schedule: Q04DX003 (ip), vehicle: water 106 % of control | dose: 400.0 mg/kg/injection, schedule: Q08DX002 (ip), vehicle: water 104 % of control | dose: 800.0 mg/kg/injection, schedule: Q01DX001 (ip), vehicle: water 100 % of control | dose: 800.0 mg/kg/injection, schedule: Q01DX009 (oral), vehicle: water 92 % of control | dose: 800.0 mg/kg/injection, schedule: Q01DX009 (sc), vehicle: water 92 % of control | dose: 800.0 mg/kg/injection, schedule: Q04DX003 (ip), vehicle: water 118 % of control | dose: 800.0 mg/kg/injection, schedule: Q08DX002 (ip), vehicle: water 113 % of control | dose: 1600.0 mg/kg/injection, schedule: Q01DX001 (ip), vehicle: water 119 % of control | dose: 1600.0 mg/kg/injection, schedule: Q08DX002 (ip), vehicle: water 120 % of control

CCCCCCC(=O)/C=C/c1cccc([N+](=O)[O-])c1
inactive: [1] 89 % of control | [2] 95 % of control | [3] 94 % of control

Cc1cc2nc(CC(=O)c3cccnc3)c(CC(=O)c3cccnc3)nc2cc1C
inactive: dose: 6.25 mg/kg/injection, schedule: Q01DX005 (ip), vehicle: saline with Tween-80 90 % of control | dose: 12.5 mg/kg/injection, schedule: Q01DX005 (ip), vehicle: saline with Tween-80 90 % of control | dose: 25.0 mg/kg/injection, schedule: Q01DX005 (ip), vehicle: saline with Tween-80 90 % of control | [4] 91 % of control

Clc1ccc(/C=N\N=C\c2ccc(Cl)c(Cl)c2)cc1Cl
inactive: dose: 25.0 mg/kg/injection, schedule: Q01DX009 (ip), vehicle: saline with Tween-80 95 % of control | [1] 100 % of control | [2] 110 % of control | [3] 90 % of control | dose: 400.0 mg/kg/injection, schedule: Q01DX009 (ip), vehicle: saline with Tween-80 90 % of control

CC(C)NCC(O)COc1c2ccccc2nc2ccccc12 (stereo not drawn)
inactive: dose: 50.0 mg/kg/injection, schedule: Q01DX005 (ip), vehicle: saline with Tween-80 101 % of control | [4] 95 % of control | dose: 200.0 mg/kg/injection, schedule: Q01DX005 (ip), vehicle: saline with Tween-80 102 % of control

O/N=C1C=C/C(=C/c2ccccc2)c2ccccc2/1
inactive: dose: 50.0 mg/kg/injection, schedule: Q01DX005 (ip), vehicle: Klucel (hydroxypropylcellulose) (HPC) 96 % of control | dose: 100.0 mg/kg/injection, schedule: Q01DX005 (ip), vehicle: Klucel (hydroxypropylcellulose) (HPC) 92 % of control | dose: 200.0 mg/kg/injection, schedule: Q01DX005 (ip), vehicle: Klucel (hydroxypropylcellulose) (HPC) 92 % of control

Cc1ccc2c(c1)C(=O)c1cc3c(cc1C2=O)OCO3
inactive: dose: 60.0 mg/kg/injection, schedule: Q01DX005 (ip), vehicle: saline with Tween-80 87 % of control | dose: 120.0 mg/kg/injection, schedule: Q01DX005 (ip), vehicle: saline with Tween-80 91 % of control | dose: 240.0 mg/kg/injection, schedule: Q01DX005 (ip), vehicle: saline with Tween-80 89 % of control and 91 % of control

CC1(C)CC([N+](C)(C)CCCCCC[N+](C)(C)C2CC(C)(C)N(O)C(C)(C)C2)CC(C)(C)N1O
inactive: dose: 12.5 mg/kg/injection, schedule: Q04DX003 (ip), vehicle: saline 105 % of control | dose: 25.0 mg/kg/injection, schedule: Q04DX003 (ip), vehicle: saline 100 % of control | dose: 50.0 mg/kg/injection, schedule: Q04DX003 (ip), vehicle: saline 103 % of control and 108 % of control

CCCNN1CCN(c2ccncc2S(=O)(=O)N2CCCCC2)CC1
inactive: dose: 60.0 mg/kg/injection, schedule: Q01DX005 (ip), vehicle: Klucel (hydroxypropylcellulose) (HPC) 98 % of control | dose: 120.0 mg/kg/injection, schedule: Q01DX005 (ip), vehicle: Klucel (hydroxypropylcellulose) (HPC) 99 % of control | dose: 240.0 mg/kg/injection, schedule: Q01DX005 (ip), vehicle: Klucel (hydroxypropylcellulose) (HPC) 94 % of control
